From US11980633B2, “Method for treating cancer using a combination of DNA-damaging agents and DNA-PK inhibitors” (Vertex Pharmaceuticals Incorporated, priority 2016, dated 2024)

What was measured:
Type in all cases: cell-based
[1] = system: primary human tumors (esophageal, gastric); assay: TCA: Compound B-1 with 5-FU, primary tumors
Procedure: (§1) In both studies, cell viability was assessed after 6 days in culture. Statistical analysis of the combination matrix was performed to assess whether synergy, additivity, or antagonism of the combination treatments were observed.
(§2) Materials: Primary patient samples (See Tables 16 and 17, below) were excised from mice when they reached 500 mg to 1000 mg in size and processed immediately, or after overnight shipment. Tumors were serially passaged by subcutaneous implantation of 50 mg to 150 mg fragments into the flanks of immunocompromised (nude) mice. Tumors were used within the first 5 or 7 passages.
(§3) Tumor Chemosensitivity Assay (TCA): Primary tumor samples were grown and serially passaged in immunocompromised mice. Tumors were mechanically dissociated into small fragments (1 mm to 2 mm) with scalpels in phosphate buffered saline (PBS or RPMI) and centrifuged at 200×g for 5 minutes at room temperature in 50 mL centrifuge tubes. Samples were resuspended in 10 mL of cell dissociation reagent and enzymatically digested with mechanical agitation for 1 to 3 hours at 37° C., 5% CO2 to a single cell suspension. Ten mL of complete RPMI-1640 media was added to the cell mixture and pipetted up and down 4 to 5 times. The mixture was then passed through a 70 μm or 100 μm mesh strainer to remove undigested tumor. The filtrate was then centrifuged 200×g for 5 minutes at room temperature and resuspended in 20 mL complete RPMI-1640. This cell suspension was slowly layered onto 20 mL of room temperature Histopaque and centrifuged at 400×g for 15 minutes at room temperature without a brake. The interface was transferred to a new 50 mL centrifuge tube and 15 mL of complete RPMI-1640 was added. This suspension was centrifuged at 200×g at room temperature, and the resulting pellet was resuspended in 10 mL of complete PC-1 media, except for pancreatic tumors in which case Pancreatic Medium was used. Cells were diluted in Trypan blue, and viable cells that excluded the dye were counted. Only the larger, tumor cells were included in the cell count. Cells were diluted in complete PC-1 or Pancreatic media, as appropriate for the cells, and were plated at 15,000 to 20,000 cells per well in 100-135 μL in ultra-low attachment U-bottom plates.
(§4) Compound Addition: For these studies, a 10 mM stock of the DNA-PK inhibitor (Compound B-1 or Compound B-2) was made in DMSO and used to add to cells from most tumors with HP D300 Digital Dispenser (Tecan US, Morrisville, NC, USA), or diluted into the appropriate media (PC-1 or pancreatic media) as a 5-10× stock and added to cells (OVX001 and ENX001, 005). PC-1, pancreatic media, and chemotherapeutics were also added so that final well volume was 150 μL. Doxorubicin was made as DMSO stock of 1 or 10 mM and added to cells for most tumors with HP D300 Digital Dispenser, or diluted into PC-1 as 5-10× stock and added to cells (OVX001 and ENX001, 005). Cisplatin (cis-diammine platinum(II), dichloride) was prepared fresh to 10 mM in warm (60° C.) distilled water and diluted in PC-1 as a 5-10× stock. […] Different starting concentrations, dose ranges, and number of doses were used for each experiment based on the response data available at the time.
(§5) For bleomycin experiments, combinations with Compound B-1 at all concentrations were run in triplicate. A 6×3 matrix was designed on one plate, consisting of a 2-point concentration range of 0.73 μM and 2.2 μM Compound B-1 plus no treatment control, in 3 columns each of 6 wells. Bleomycin (plus ‘no treatment’ control) was added to 9 wells in rows of this plate. Similar 6×3 matrices were set up for additional agents with different starting concentrations for compound dilutions. For cisplatin experiments the starting concentration was 30 μM which was diluted 1:3. […] For doxorubicin hydrochloride experiments the starting concentration was 5 μM doxorubicin which was diluted 1:3. For gemcitabine experiments the starting concentration was 5 μM gemcitabine which was diluted 1:3. […]

[2] = system: primary human tumors (NSCLC, pancreatic, gastric, esophageal); assay: TCA: Compound B-1 with bleomycin, primary tumors; set-up: Average Bliss score: scale not given here
Procedure: as §1, §2, §3, §4, §5

[3] = system: primary human tumors (NSCLC, SCLC, pancreatic, HCC, gastric, esophageal); assay: TCA assays overall: all combination treatments with Compound B-1
Procedure: as §1, §2
as §3, with “Cells were diluted in complete PC-1 or Pancreatic media, as appropriate for the cells, and were plated at 15,000 to 20,000 cells per well in 100-135 μL in ultra-low attachment U-bottom plates.” left out

CNC(=O)c1ccnc2c([C@H](C)CNc3cc(-c4cnc(C)nc4)ncn3)cccc12 [Compound B-1]
tumors that showed synergy or additivity ([1]; 5 tumors): 100% | Average Bliss score ([1]; tumor ESX005, Esophageal): −1 | Synergy/Additivity/Antagonism ([1]; tumor ESX005, Esophageal): Additive (Values between 5 and −5 are considered additive) | Average Bliss score ([1]; tumor ESX008, Esophageal): −2 | Synergy/Additivity/Antagonism ([1]; tumor ESX008, Esophageal): Additive (Values between 5 and −5 are considered additive) | Average Bliss score ([1]; tumor GAX001, Gastric): 6 | Synergy/Additivity/Antagonism ([1]; tumor GAX001, Gastric): Synergistic (greater than 5 are considered synergistic) | Average Bliss score ([1]; tumor GAX007, Gastric): 0 | Synergy/Additivity/Antagonism ([1]; tumor GAX007, Gastric): Additive (Values between 5 and −5 are considered additive) | Average Bliss score ([1]; tumor GAX027, Gastric): 4 | Synergy/Additivity/Antagonism ([1]; tumor GAX027, Gastric): Additive (Values between 5 and −5 are considered additive) | number of tumors that showed synergy or additivity ([2]; of twenty tumors assessed): 20 tumors | tumors that showed strong synergy ([2]; six of 20 tumors): 30% | Average Bliss score ([2]; tumor ESX005, Esophageal): 6 | Synergy/Additivity/Antagonism ([2]; tumor ESX005, Esophageal): Synergistic (greater than 5 are considered synergistic) | Average Bliss score ([2]; tumor ESX008, Esophageal): 7 | Synergy/Additivity/Antagonism ([2]; tumor ESX008, Esophageal): Synergistic (greater than 5 are considered synergistic) | Average Bliss score ([2]; tumor GAX001, Gastric): 14 | Synergy/Additivity/Antagonism ([2]; tumor GAX001, Gastric): Strongly Synergistic (greater than 10 are considered strongly synergistic) | Average Bliss score ([2]; tumor GAX007, Gastric): 5 | Synergy/Additivity/Antagonism ([2]; tumor GAX007, Gastric): Synergistic (greater than 5 are considered synergistic) | Average Bliss score ([2]; tumor GAX027, Gastric): 11 | Synergy/Additivity/Antagonism ([2]; tumor GAX027, Gastric): Strongly Synergistic (greater than 10 are considered strongly synergistic) | Average Bliss score ([2]; tumor OD25982, Lung (NSCLC)): 4 | Synergy/Additivity/Antagonism ([2]; tumor OD25982, Lung (NSCLC)): Additive (Values between 5 and −5 are considered additive) | Average Bliss score ([2]; tumor OD26131, Lung (NSCLC)): 9 | Synergy/Additivity/Antagonism ([2]; tumor OD26131, Lung (NSCLC)): Synergistic (greater than 5 are considered synergistic) | Average Bliss score ([2]; tumor OD26749, Lung (NSCLC)): 10 | Synergy/Additivity/Antagonism ([2]; tumor OD26749, Lung (NSCLC)): Strongly Synergistic (greater than 10 are considered strongly synergistic) | Average Bliss score ([2]; tumor OD29498, Lung (NSCLC)): 3 | Synergy/Additivity/Antagonism ([2]; tumor OD29498, Lung (NSCLC)): Additive (Values between 5 and −5 are considered additive) | Average Bliss score ([2]; tumor OD33117, Lung (NSCLC)): 9 | Synergy/Additivity/Antagonism ([2]; tumor OD33117, Lung (NSCLC)): Synergistic (greater than 5 are considered synergistic) | Average Bliss score ([2]; tumor OD33966, Lung (NSCLC)): 3 | Synergy/Additivity/Antagonism ([2]; tumor OD33966, Lung (NSCLC)): Additive (Values between 5 and −5 are considered additive) | Average Bliss score ([2]; tumor OD36088, Lung (NSCLC)): 14 | Synergy/Additivity/Antagonism ([2]; tumor OD36088, Lung (NSCLC)): Strongly Synergistic (greater than 10 are considered strongly synergistic) | Average Bliss score ([2]; tumor P110323, Pancreatic): 10 | Synergy/Additivity/Antagonism ([2]; tumor P110323, Pancreatic): Strongly Synergistic (greater than 10 are considered strongly synergistic) | Average Bliss score ([2]; tumor P110325, Pancreatic): 0 | Synergy/Additivity/Antagonism ([2]; tumor P110325, Pancreatic): Additive (Values between 5 and −5 are considered additive) | Average Bliss score ([2]; tumor P110408, Pancreatic): 7 | Synergy/Additivity/Antagonism ([2]; tumor P110408, Pancreatic): Synergistic (greater than 5 are considered synergistic) | Average Bliss score ([2]; tumor P110413, Pancreatic): 6 | Synergy/Additivity/Antagonism ([2]; tumor P110413, Pancreatic): Synergistic (greater than 5 are considered synergistic) | Average Bliss score ([2]; tumor P110504, Pancreatic): 8 | Synergy/Additivity/Antagonism ([2]; tumor P110504, Pancreatic): Synergistic (greater than 5 are considered synergistic) | Average Bliss score ([2]; tumor P110603, Pancreatic): 14 | Synergy/Additivity/Antagonism ([2]; tumor P110603, Pancreatic): Strongly Synergistic (greater than 10 are considered strongly synergistic) | Average Bliss score ([2]; tumor TS110310, Lung (NSCLC)): 2 | Synergy/Additivity/Antagonism ([2]; tumor TS110310, Lung (NSCLC)): Additive (Values between 5 and −5 are considered additive) | Average Bliss score ([2]; tumor YAS111611, Lung (NSCLC)): 6 | Synergy/Additivity/Antagonism ([2]; tumor YAS111611, Lung (NSCLC)): Synergistic (greater than 5 are considered synergistic) | tumors that showed antagonism ([3]; all TCA combinations with Compound B-1 (4/63)): 6% | combination treatments that showed additive effects ([3]; all TCA combinations with Compound B-1 (29/63)): 46% | combination treatments that demonstrated synergy or strong synergy ([3]; all TCA combinations with Compound B-1 (29/68 as printed)): 46%
